Experimental data: article PMC10046961, “High-Throughput Screening Assay for Detecting Drug-Induced Changes in Synchronized Neuronal Oscillations and Potential Seizure Risk Based on Ca^2+ Fluorescence Measurements in Human Induced Pluripotent Stem Cell (hiPSC)-Derived Neuronal 2D and 3D Cultures” (Cells, 2023)
Like-named read-outs stand apart in the source and are kept apart here.

How the values were obtained:
[1] = tested on: hiPSC-derived neurons co-cultured with human primary astrocytes in 3D; test: Ca2+ transient oscillation assay (FDSS), 3D spheroids; format: cell-based; settings: 60 min
Method in brief: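 Fura-2 fluorescence was read twice for 20 min each: a baseline 10 min after 0.04% DMSO, and again 60 min after compound addition at nominal final concentration. The 3D co-cultures (1:1 hiPSC neurons from a donor and human astrocytes, 8000 each) matured 5 weeks in BrainPhys medium after a 1-week differentiation.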

[2] = tested on: kainic-acid-induced seizures; settings: cited from earlier work
[3] = tested on: hiPSC-derived neurons co-cultured with human primary astrocytes in 2D; test: Ca2+ transient oscillation assay (FDSS), 2D co-culture; format: cell-based; settings: for activation at 0.37 µM / activation at 1.11 µM / activation at 3.33 µM / activation at 10 µM: Homo sapiens, 1 h, 60 min
Method in brief: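 Cultures were 10,000 CW50065 hiPSC excitatory neurons plus 2500 primary human astrocytes per well. Recordings used Cal-520 dye in HBSS/HEPES/glucose at 37 °C, with a 470/540 nm read at 2 Hz. Oscillations were stabilized with 0.04% DMSO, read for 20 min, then read again 60 min after compound addition (final DMSO 0.1%).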

[4] = ref PharmaPendium, cited from earlier work
[5] = cited from earlier work
[6] = humans; cited from earlier work
[7] = read-out: Area under the curve - 2D Mean
[8] = read-out: Peak amplitude - 2D Mean
[9] = read-out: Peak-to-peak interval - 2D Mean

CC(NC(C)(C)C)C(=O)c1cccc(Cl)c1 (centres unmarked) [Bupropion]
Area under the curve - 3D Mean ([1]; 0.37 µM): 137.5 % change from baseline
Peak Number—3D Mean ([1]; 0.37 µM): 1.3 % change from baseline
Peak amplitude - 3D Mean ([1]; 0.37 µM): 126.7 % change from baseline
Peak width - 3D Mean ([1]; 0.37 µM): 0.0 % change from baseline
Peak-to-peak interval - 3D Mean ([1]; 0.37 µM): 4.1 % change from baseline
Area under the curve - 3D Mean ([1]; 1.11 µM): 159.9 % change from baseline
Peak Number—3D Mean ([1]; 1.11 µM): −8.4 % change from baseline
Peak amplitude - 3D Mean ([1]; 1.11 µM): 134.2 % change from baseline
Peak width - 3D Mean ([1]; 1.11 µM): 9.4 % change from baseline
Peak-to-peak interval - 3D Mean ([1]; 1.11 µM): 15.3 % change from baseline
Area under the curve - 3D Mean ([1]; 3.33 µM): 154.1 % change from baseline
Peak Number—3D Mean ([1]; 3.33 µM): −2.2 % change from baseline
Peak amplitude - 3D Mean ([1]; 3.33 µM): 128.1 % change from baseline
Peak width - 3D Mean ([1]; 3.33 µM): 9.0 % change from baseline
Peak-to-peak interval - 3D Mean ([1]; 3.33 µM): 7.8 % change from baseline
Area under the curve - 3D Mean ([1]; 10 µM): 119.7 % change from baseline
Peak Number—3D Mean ([1]; 10 µM): 12.5 % change from baseline
Peak amplitude - 3D Mean ([1]; 10 µM): 118.0 % change from baseline
Peak width - 3D Mean ([1]; 10 µM): −1.4 % change from baseline
Peak-to-peak interval - 3D Mean ([1]; 10 µM): −3.5 % change from baseline
effect on kainic-acid-induced seizures in vitro [2]: attenuate
activation at 0.37 µM [3, 7]: 14.5%
activation at 0.37 µM ([3]; read-out: Peak Number—2D Mean): 12.7%
activation at 0.37 µM [3, 8]: 2.7%
activation at 0.37 µM ([3]; read-out: Peak width - 2D Mean): 12.8%
activation at 0.37 µM [3, 9]: -5.5%
activation at 1.11 µM [3, 7]: 26.6%
activation at 1.11 µM ([3]; read-out: Peak Number—2D Mean): 6.6%
activation at 1.11 µM [3, 8]: 5.4%
activation at 1.11 µM ([3]; read-out: Peak width - 2D Mean): 26.6%
activation at 1.11 µM [3, 9]: 3.4%
activation at 3.33 µM [3, 7]: 25.5%
activation at 3.33 µM ([3]; read-out: Peak Number—2D Mean): -12%
activation at 3.33 µM [3, 8]: 3.7%
activation at 3.33 µM ([3]; read-out: Peak width - 2D Mean): 29.2%
activation at 3.33 µM [3, 9]: 19.7%
activation at 10 µM [3, 7]: 39.3%
activation at 10 µM ([3]; read-out: Peak Number—2D Mean): 6%
activation at 10 µM [3, 8]: 4.7%
activation at 10 µM ([3]; read-out: Peak width - 2D Mean): 46.5%
activation at 10 µM [3, 9]: 41.8%

Cc1ccc(Nc2nccc(N(C)c3ccc4c(C)n(C)nc4c3)n2)cc1S(N)(=O)=O [Pazopanib]
Area under the curve - 3D Mean ([1]; 0.37 µM): 125.7 % change from baseline
Peak Number—3D Mean ([1]; 0.37 µM): 6.4 % change from baseline
Peak amplitude - 3D Mean ([1]; 0.37 µM): 101.6 % change from baseline
Peak width - 3D Mean ([1]; 0.37 µM): 9.7 % change from baseline
Peak-to-peak interval - 3D Mean ([1]; 0.37 µM): −2.0 % change from baseline
Area under the curve - 3D Mean ([1]; 1.11 µM): 127.9 % change from baseline
Peak Number—3D Mean ([1]; 1.11 µM): −4.2 % change from baseline
Peak amplitude - 3D Mean ([1]; 1.11 µM): 110.2 % change from baseline
Peak width - 3D Mean ([1]; 1.11 µM): 7.7 % change from baseline
Peak-to-peak interval - 3D Mean ([1]; 1.11 µM): 4.1 % change from baseline
Area under the curve - 3D Mean ([1]; 3.33 µM): 116.3 % change from baseline
Peak Number—3D Mean ([1]; 3.33 µM): 0.8 % change from baseline
Peak amplitude - 3D Mean ([1]; 3.33 µM): 107.5 % change from baseline
Peak width - 3D Mean ([1]; 3.33 µM): 4.1 % change from baseline
Peak-to-peak interval - 3D Mean ([1]; 3.33 µM): −3.0 % change from baseline
Area under the curve - 3D Mean ([1]; 10 µM): 117.4 % change from baseline
Peak Number—3D Mean ([1]; 10 µM): −2.0 % change from baseline
Peak amplitude - 3D Mean ([1]; 10 µM): 101.7 % change from baseline
Peak width - 3D Mean ([1]; 10 µM): 8.7 % change from baseline
Peak-to-peak interval - 3D Mean ([1]; 10 µM): 7.5 % change from baseline
effect on peak number / Ca2+ neuronal oscillations, in words ([3]; 2D format): significantly reduced peak number
activation at 0.37 µM [3, 7]: -1.8%
activation at 0.37 µM ([3]; read-out: Peak Number—2D Mean): -49%
activation at 0.37 µM [3, 8]: -15.8%
activation at 0.37 µM ([3]; read-out: Peak width - 2D Mean): -4.8%
activation at 0.37 µM [3, 9]: 14.6%
activation at 1.11 µM [3, 7]: 7.8%
activation at 1.11 µM ([3]; read-out: Peak Number—2D Mean): 4.4%
activation at 1.11 µM [3, 8]: -3.8%
activation at 1.11 µM ([3]; read-out: Peak width - 2D Mean): 12.6%
activation at 1.11 µM [3, 9]: -2.6%
activation at 3.33 µM [3, 7]: 38.8%
activation at 3.33 µM ([3]; read-out: Peak Number—2D Mean): 11.3%
activation at 3.33 µM [3, 8]: 11.2%
activation at 3.33 µM ([3]; read-out: Peak width - 2D Mean): 27.8%
activation at 3.33 µM [3, 9]: 0.5%
activation at 10 µM [3, 7]: 16.3%
activation at 10 µM ([3]; read-out: Peak Number—2D Mean): 10%
activation at 10 µM [3, 8]: 9.5%
activation at 10 µM ([3]; read-out: Peak width - 2D Mean): 3.7%
activation at 10 µM [3, 9]: 14.2%
Free Cmax ([4]; Table 1, peak plasma concentration in men, free therapeutic Cmax): 600 to 1200 nM
Free Cmax ([4]; Table 2, highest plasma concentration in humans after the therapeutic dose): 600 to 1200 nM
seizure risk in humans [5]: does not have a seizure risk
crossing of the blood–brain barrier [6]: does not cross the blood–brain barrier
